Results: ChEMBL document CHEMBL3885881, “DrugMatrix”

Organism: Rattus norvegicus
Test: DrugMatrix - Regimen: Daily Repeat
Format: toxicity, organism-based, Sprague-Dawley
Set-up: regimen Daily Repeat, gender Male, age 6-8 weeks
Conditions: in vivo, iv, vehicle 100 % SALINE; for ABSOLUTE BASOPHIL / ABSOLUTE EOSINOPHIL / ABSOLUTE LYMPHOCYTE / ABSOLUTE MONOCYTE / ABSOLUTE SEGMENTED NEUTROPHIL / BASOPHIL / EOSINOPHIL / ERYTHROCYTE COUNT / HEMATOCRIT / HEMOGLOBIN / LEUKOCYTE COUNT / LYMPHOCYTE / MEAN CORPUSCULAR HEMOGLOBIN / MEAN CORPUSCULAR HEMOGLOBIN CONCENTRATION / MEAN CORPUSCULAR VOLUME / MONOCYTE / NEUTROPHIL / NUCLEATED RED BLOOD CELLS / PLATELET COUNT: tissue Blood; for ALANINE AMINOTRANSFERASE / ALBUMIN / ALKALINE PHOSPHATASE / ASPARTATE AMINOTRANSFERASE / BLOOD UREA NITROGEN / CARBON DIOXIDE / CHLORIDE / CHOLESTEROL / CREATINE PHOSPHOKINASE / CREATININE / GLUCOSE / LACTATE DEHYDROGENASE / LIPASE / PHOSPHORUS / POTASSIUM / SODIUM / TOTAL BILIRUBIN / TOTAL PROTEIN / URIC ACID: tissue Plasma
[1] = 0 mg/kg, 72 h, dose level Control, time 3 day
[2] = 0 mg/kg, 120 h, dose level Control, time 5 day
[3] = […], 72 h, dose 0.24 mg/Kg, dose level Low, time 3 day
[4] = […], 72 h, dose 2.5 mg/Kg, dose level High, time 3 day

CC[C@@]1(O)C(=O)OCc2c1cc1n(c2=O)Cc2cc3ccccc3nc2-1 [CAMPTOTHECIN]
ABSOLUTE BASOPHIL [1]: 0 CELLS/uL
ABSOLUTE EOSINOPHIL [1]: 21.67 CELLS/uL
ABSOLUTE LYMPHOCYTE [1]: 10193.67 CELLS/uL
ABSOLUTE MONOCYTE [1]: 165.83 CELLS/uL
ABSOLUTE SEGMENTED NEUTROPHIL [1]: 702.17 CELLS/uL
BASOPHIL [1]: 0%
EOSINOPHIL [1]: 0.17%
ERYTHROCYTE COUNT [1]: 5.39 x10E6/uL
HEMATOCRIT [1]: 34.62%
HEMOGLOBIN [1]: 13.8 G/DL
LEUKOCYTE COUNT [1]: 11.08 x10E3/uL
LYMPHOCYTE [1]: 91.83%
MEAN CORPUSCULAR HEMOGLOBIN [1]: 25.68 pg
MEAN CORPUSCULAR HEMOGLOBIN CONCENTRATION [1]: 39.9 G/DL
MEAN CORPUSCULAR VOLUME [1]: 64.37 fL
MONOCYTE [1]: 1.5%
NEUTROPHIL [1]: 6.5%
NUCLEATED RED BLOOD CELLS [1]: 0 /100WBC
PLATELET COUNT [1]: 1202.83 x10E3/uL
ALANINE AMINOTRANSFERASE [1]: 55.5 u/L
ALBUMIN [1]: 4.22 G/DL
ALKALINE PHOSPHATASE [1]: 406.83 u/L
ASPARTATE AMINOTRANSFERASE [1]: 101.5 u/L
BLOOD UREA NITROGEN [1]: 13.5 mg/dL
CARBON DIOXIDE [1]: 30.33 mmol/L
CHLORIDE [1]: 102.17 MEQ/L
CHOLESTEROL [1]: 63.67 mg/dL
CREATINE PHOSPHOKINASE [1]: 732.67 u/L
CREATININE [1]: 0.2 mg/dL
GLUCOSE [1]: 157 mg/dL
LACTATE DEHYDROGENASE [1]: 442.5 u/L
LIPASE [1]: 10.83 u/L
PHOSPHORUS [1]: 12.68 mg/dL
POTASSIUM [1]: 5.67 MEQ/L
SODIUM [1]: 144 MEQ/L
TOTAL BILIRUBIN [1]: 0.15 mg/dL
TOTAL PROTEIN [1]: 6.02 G/DL
URIC ACID [1]: 1.55 mg/dL
ABSOLUTE BASOPHIL [2]: 0 CELLS/uL
ABSOLUTE EOSINOPHIL [2]: 17 CELLS/uL
ABSOLUTE LYMPHOCYTE [2]: 11849.17 CELLS/uL
ABSOLUTE MONOCYTE [2]: 69.83 CELLS/uL
ABSOLUTE SEGMENTED NEUTROPHIL [2]: 730.67 CELLS/uL
BASOPHIL [2]: 0%
EOSINOPHIL [2]: 0.17%
ERYTHROCYTE COUNT [2]: 5.93 x10E6/uL
HEMATOCRIT [2]: 37.42%
HEMOGLOBIN [2]: 14.4 G/DL
LEUKOCYTE COUNT [2]: 12.67 x10E3/uL
LYMPHOCYTE [2]: 93.17%
MEAN CORPUSCULAR HEMOGLOBIN [2]: 24.32 pg
MEAN CORPUSCULAR HEMOGLOBIN CONCENTRATION [2]: 38.5 G/DL
MEAN CORPUSCULAR VOLUME [2]: 63.08 fL
MONOCYTE [2]: 0.5%
NEUTROPHIL [2]: 6.17%
NUCLEATED RED BLOOD CELLS [2]: 0 /100WBC
PLATELET COUNT [2]: 1170.5 x10E3/uL
ALANINE AMINOTRANSFERASE [2]: 51 u/L
ALBUMIN [2]: 4.12 G/DL
ALKALINE PHOSPHATASE [2]: 392.67 u/L
ASPARTATE AMINOTRANSFERASE [2]: 81.67 u/L
BLOOD UREA NITROGEN [2]: 16.17 mg/dL
CARBON DIOXIDE [2]: 30.67 mmol/L
CHLORIDE [2]: 100.5 MEQ/L
CHOLESTEROL [2]: 64.83 mg/dL
CREATINE PHOSPHOKINASE [2]: 242.67 u/L
CREATININE [2]: 0.2 mg/dL
GLUCOSE [2]: 186.83 mg/dL
LACTATE DEHYDROGENASE [2]: 188 u/L
LIPASE [2]: 10.83 u/L
PHOSPHORUS [2]: 11.67 mg/dL
POTASSIUM [2]: 5.51 MEQ/L
SODIUM [2]: 142.55 MEQ/L
TOTAL BILIRUBIN [2]: 0.22 mg/dL
TOTAL PROTEIN [2]: 6.08 G/DL
URIC ACID [2]: 1.85 mg/dL
ABSOLUTE BASOPHIL [3]: 0 CELLS/uL
ABSOLUTE EOSINOPHIL [3]: 41.67 CELLS/uL
ABSOLUTE LYMPHOCYTE [3]: 12074 CELLS/uL
ABSOLUTE MONOCYTE [3]: 83.33 CELLS/uL
ABSOLUTE SEGMENTED NEUTROPHIL [3]: 834.33 CELLS/uL
BASOPHIL [3]: 0%
EOSINOPHIL [3]: 0.33%
ERYTHROCYTE COUNT [3]: 5.45 x10E6/uL
HEMATOCRIT [3]: 34.8%
HEMOGLOBIN [3]: 13.63 G/DL
LEUKOCYTE COUNT [3]: 13.03 x10E3/uL
LYMPHOCYTE [3]: 92.67%
MEAN CORPUSCULAR HEMOGLOBIN [3]: 25.13 pg
MEAN CORPUSCULAR HEMOGLOBIN CONCENTRATION [3]: 39.23 G/DL
MEAN CORPUSCULAR VOLUME [3]: 63.97 fL
MONOCYTE [3]: 0.67%
NEUTROPHIL [3]: 6.33%
NUCLEATED RED BLOOD CELLS [3]: 0 /100WBC
PLATELET COUNT [3]: 732.67 x10E3/uL
ABSOLUTE BASOPHIL [4]: 0 CELLS/uL
ABSOLUTE EOSINOPHIL [4]: 0 CELLS/uL
ABSOLUTE LYMPHOCYTE [4]: 9985 CELLS/uL
ABSOLUTE MONOCYTE [4]: 46 CELLS/uL
ABSOLUTE SEGMENTED NEUTROPHIL [4]: 602.33 CELLS/uL
BASOPHIL [4]: 0%
EOSINOPHIL [4]: 0%
ERYTHROCYTE COUNT [4]: 5.09 x10E6/uL
HEMATOCRIT [4]: 32.33%
HEMOGLOBIN [4]: 13.2 G/DL
LEUKOCYTE COUNT [4]: 10.63 x10E3/uL
LYMPHOCYTE [4]: 94%
MEAN CORPUSCULAR HEMOGLOBIN [4]: 25.93 pg
MEAN CORPUSCULAR HEMOGLOBIN CONCENTRATION [4]: 40.87 G/DL
MEAN CORPUSCULAR VOLUME [4]: 63.53 fL
MONOCYTE [4]: 0.33%
NEUTROPHIL [4]: 5.67%
NUCLEATED RED BLOOD CELLS [4]: 0 /100WBC
PLATELET COUNT [4]: 1247.67 x10E3/uL
